# Patent US8536148B2, “Disabling autophagy as a treatment for lysosomal storage diseases” (The United States of America, as Represented by the …, priority 2009, dated 2013)
# “Also recorded” adds a separate entry of the source.
# Tests used:
# [1] = intraperitoneal; Sigma MSDS; cited from earlier work
# autophagy = experiment: Inhibition of autophagy by 3-MA injected into TA muscle (histology, LC3, glycogen content); type: in vivo; conditions: 40 l of 5 mg/ml per TA, two injections six days apart, harvested two to three days after second injection
# Method: 3-MA was administered using the highest possible safety dose (40 l of 5 mg/ml per TA) determined from the above-described study. Two injections (six days apart) were given into TA muscle. Two to three days after the second injection, the treated muscles were harvested to examine the histology, the level of autophagy marker LC3, and the glycogen content.
# TA muscle = type: in vivo
# [2] = system: MLCcre: Atg7F/F: GAA−/− mice; experiment: LAMP-1/LC3 immunostaining of single fast (psoas) fibers after ERT, MLCcre:Atg7F/F:GAA−/− mice; type: in vivo, mouse; conditions: ERT-treated
# Method: (§1) White gastrocnemius, soleus, and psoas muscles were removed immediately after sacrifice and pinned to Sylgaard-coated dishes for fixation with 2% paraformaldehyde in 0.1M phosphate buffer for 1 h, followed by fixation in methanol (−20° C.) for 6 min. Single fibers were obtained by manual teasing. Fibers were placed in a 24-well plate in Blocking Reagent (Vector Laboratories, Burlingame, Calif.) for 1 h. The fibers were then permeabilized, incubated with primary antibody overnight at 4° C., washed, incubated with secondary antibody for 2 h, washed again, and mounted in Vectashield (Vector Laboratories, Burlingame, Calif.) on a glass slide. The fibers were analyzed using a Zeiss 510 META confocal microscope. The white part of gastrocnemius and psoas muscles in mice are a good source of glycolytic fast-twitch type II fibers (referred to as fast fibers), whereas soleus muscle is a good source of oxidative slow-twitch type I fibers (referred to as slow fibers). At least three animals from each genotype were used to obtain single muscle fibers for immunostaining. For each immunostaining and for confocal analysis, at least 20 fibers were isolated from each of the three muscle groups. […]
# [3] = system: HSAcre: Atg5F/F: GAA−/− mice; experiment: Effect of ERT on ubiquitinated (Ub) proteins in fast muscle of HSAcre:Atg5F/F:GAA−/− mice (FK2 immunoblot, immunostaining); type: in vivo, mouse; conditions: ERT-treated vs untreated
# Method: as §1
# Protein concentrations of the supernatants of the total lysates or soluble fractions were measured using Bio-Rad Protein Assay (Bio-Rad Laboratories, Inc., Hercules, Calif.). […]
# [4] = system: genetically engineered mice that lack expression of GAA; conditions: mice lacking GAA; cited from earlier work
# GAA−/− mice [5] = experiment: LAMP-1/LC3 immunostaining of single fast (psoas) fibers after ERT, GAA−/− mice; type: in vivo, mouse; conditions: ERT-treated
# Method: as §1
# [6] = system: HSAcre: Atg5F/F: GAA−/− mice; experiment: Effect of ERT on glycogen levels in HSAcre:Atg5F/F:GAA−/− mice (biochemical glycogen measurement, PAS staining); type: in vivo, mouse; conditions: for Glycogen level, Treated: rhGAA 100 mg/kg i.v., three injections every other week; for Excess Glycogen: treated value minus wild type level
# Method: (§2) Glycogen concentration in skeletal muscle was evaluated by measuring the amount of glucose released after treatment of tissue extracts with Aspergillus niger amyloglucosidase as described (Kikuchi et al., J. Clin. Invest., 101:827-833, 1998), except that the enzymatic digestion was carried out at 55° C. rather than 37° C. (Kikuchi et al., J. Clin. Invest., 101:827-833, 1998). Tissues were fixed in 3% glutaraldehyde (EM grade, Electron Microscopy sciences, Hatfield, Pa.) in 0.2M Sodium Cacodylate buffer for 4 h at 4° C., washed in 0.1M Sodium Cacodylate buffer, and stored at 4° C. in the same buffer. Samples were then imbedded in paraffin, sectioned, and stained with periodic acid-Schiff (PAS) by standard methods.
# (§3) Two and a half month-old GAA−/−, MLCcre: Atg7F/F: GAA−/−, and HSAcre: Atg5F/F: GAA−/− mice received three intravenous injections of recombinant human α-glucosidase (rhGAA; Myozyme®, Genzyme Corporation, Framingham, Mass.) at a dose of 100 mg/kg every other week. To diminish a hypersensitivity reaction, diphenhydramine hydrochloride was injected intraperitoneally at a dose of 5 mg/kg 15 minutes before the second and third injections of rhGAA. The mice were sacrificed 7 days after the last injection. Twelve GAA−/−, 11 HSAcre: Atg5F/F: GAA−/−, and 9 MLCcre: Atg7F/F: GAA−/− were treated with rhGAA.
# GAA−/− mice [7] = experiment: Effect of ERT on ubiquitinated (Ub) proteins in fast muscle of GAA−/− mice (FK2 immunoblot); type: in vivo, mouse; conditions: gastrocnemius total lysates, ERT-treated vs untreated
# Method: Whole muscle tissues were homogenized in RIPA buffer (PBS, 1% NP40, 0.5% Sodium deoxycholate, 0.1% SDS) containing a protease inhibitor cocktail tablet (Roche Diagnostics, Mannheim, Germany). Samples were centrifuged for 30 min at 13,000 rpm at 4° C. Alternatively, detergent-soluble and -insoluble fractions from muscle tissues were obtained as previously described (Hara et al. 2006). Briefly, muscle tissues were homogenized in ice-cold 0.25 M sucrose buffer (50 mM Tris-HCl pH 7.4, 1 mM EDTA; ˜350 μl/100 mg tissue) with protease inhibitors. Homogenates were centrifuged at a low speed for […] at 4° C., and the supernatants were lysed with an equal volume of cold sucrose buffer with 1% Triton X-100. Lysates were then centrifuged at 13,000 g for […] at 4° C. to collect fractions soluble in 0.5% Triton-X-100; the pellets (Triton-X-100-insoluble fractions) were resuspended in 1% SDS in PBS.
# Protein concentrations of the supernatants of the total lysates or soluble fractions were measured using Bio-Rad Protein Assay (Bio-Rad Laboratories, Inc., Hercules, Calif.). Equal amounts of protein were run on SDS-PAGE gels (Invitrogen) followed by electro-transfer onto nitrocellulose membranes (Invitrogen). […]
# Pompe disease = conditions: cited from earlier work
# [8] = system: MLCcre: Atg7F/F: GAA−/− mice; experiment: Effect of ERT on glycogen levels in MLCcre:Atg7F/F:GAA−/− mice (biochemical glycogen measurement, PAS staining); type: in vivo, mouse; conditions: for Glycogen level after ERT (in words): MLCcre:Atg7F/F:GAA−/− mice, fast muscle; for Glycogen level, Treated: rhGAA 100 mg/kg i.v., three injections every other week; for Excess Glycogen: treated value minus wild type level
# Method: as §2, §3
# GAA−/− mice [9] = experiment: Effect of ERT on glycogen levels in GAA−/− mice (biochemical glycogen measurement, PAS staining); type: in vivo, mouse; conditions: for Treated vs. Untreated GAA−/− % Reduction / Glycogen level, Treated / Excess Glycogen: GAA−/−; for Glycogen level, Treated: rhGAA 100 mg/kg i.v., three injections every other week; for Excess Glycogen: treated value minus wild type level
# Method: as §2, §3
compound,measurement,setting,value
"Cn1cnc(N)c2ncnc1-2 [3-MA, 3-Methyladenine]",ip LD50 dose,[1],280 mg/kg
same,Inhibition of autophagy in the injected muscle,autophagy,did not inhibit autophagy effectively
same,Highest possible safety dose,"TA muscle; 40 l per TA (so in the source), intramuscular",5 mg/mL
same,Toxicity / tolerability,"TA muscle; mouse, in vivo, ip",no toxicity was observed
"ERT: recombinant human α-glucosidase (rhGAA; Myozyme®, Genzyme Corporation) given intravenously as enzyme replacement therapy",Expanded lysosomes (LAMP-1 immunostaining),[2],reduce in size and appear normal
same,"Ub-proteins, FK2 immunostaining of single fast (psoas) myofibers",[3],"clearly observed in untreated, but not in ERT-treated myofibers"
same,"Amount of ubiquitinated (Ub) proteins, FK2 immunoblot","[3]; gastrocnemius, soluble and non-soluble fractions",A significant drop in the amount of Ub-proteins; also recorded: significant decrease in the amount of ubiquitinated-proteins
same,Glycogen clearance from type I muscle fibers,[4],effective in clearing gylcogen from type I muscle fibers
same,Glycogen clearance from type II muscle fibers,[4],not type II muscle fibers
same,Autophagic buildup (LC3 immunostaining),GAA−/− mice [5],this buildup persists in ERT-treated GAA−/− mice
same,Lysosomal size (LAMP-1 immunostaining),GAA−/− mice [5],even larger than those in the untreated fiber
same,Glycogen level after ERT (in words),"[6]; HSAcre:Atg5F/F:GAA−/− mice, fast muscle",reduction of glycogen levels to normal or near normal levels; also recorded: complete removal of the accumulated glycogen
same,Treated vs. Untreated GAA−/− % Reduction,"[6]; HSAcre:Atg5F/F:GAA−/−, Gastroc",94%
same,"Glycogen level, Treated","[6]; HSAcre:Atg5F/F:GAA−/−, Gastroc",4.1 ± 4.9 μg glucose/hr/mg protein
same,Excess Glycogen,"[6]; HSAcre:Atg5F/F:GAA−/−, Gastroc",0 μg glucose/hr/mg protein
same,Treated vs. Untreated GAA−/− % Reduction,"[6]; HSAcre:Atg5F/F:GAA−/−, Heart",100%
same,"Glycogen level, Treated","[6]; HSAcre:Atg5F/F:GAA−/−, Heart",0.0 ± 0.0 μg glucose/hr/mg protein
same,Excess Glycogen,"[6]; HSAcre:Atg5F/F:GAA−/−, Heart",0 μg glucose/hr/mg protein
same,Treated vs. Untreated GAA−/− % Reduction,"[6]; HSAcre:Atg5F/F:GAA−/−, Quad",94%
same,"Glycogen level, Treated","[6]; HSAcre:Atg5F/F:GAA−/−, Quad",5.0 ± 4.9 μg glucose/hr/mg protein
same,Excess Glycogen,"[6]; HSAcre:Atg5F/F:GAA−/−, Quad",0.6 μg glucose/hr/mg protein
same,"Glycogen clearance, PAS-stained sections","[6]; HSAcre:Atg5F/F:GAA−/−, fast (gastrocnemius) muscle, 4 month-old",near complete glycogen clearance
same,"Amount of ubiquitinated (Ub) proteins, FK2 immunoblot",GAA−/− mice [7],No difference in the amount of the Ub-proteins; also recorded: No reduction of ubiquitinated-proteins
same,Glycogen clearance from skeletal muscle,Pompe disease,less effective for glycogen clearance from skeletal muscle
same,Glycogen clearance in cardiac muscle,Pompe disease,effective for glycogen clearance in cardiac muscle
same,Glycogen level after ERT (in words),[8],reduction of glycogen levels to normal or near normal levels
same,Glycogen level after ERT (in words),[8]; listed as recombinant enzyme,dramatic reduction in the glycogen level approaching wild type levels
same,Treated vs. Untreated GAA−/− % Reduction,"[8]; MLCcre:Atg7F/F:GAA−/−, Gastroc",88%
same,"Glycogen level, Treated","[8]; MLCcre:Atg7F/F:GAA−/−, Gastroc",8.6 ± 8.9 μg glucose/hr/mg protein
same,Excess Glycogen,"[8]; MLCcre:Atg7F/F:GAA−/−, Gastroc",4.2 μg glucose/hr/mg protein
same,Treated vs. Untreated GAA−/− % Reduction,"[8]; MLCcre:Atg7F/F:GAA−/−, Heart",100%
same,"Glycogen level, Treated","[8]; MLCcre:Atg7F/F:GAA−/−, Heart",0.2 ± 0.4 μg glucose/hr/mg protein
same,Excess Glycogen,"[8]; MLCcre:Atg7F/F:GAA−/−, Heart",0 μg glucose/hr/mg protein
same,Treated vs. Untreated GAA−/− % Reduction,"[8]; MLCcre:Atg7F/F:GAA−/−, Quad",82%
same,"Glycogen level, Treated","[8]; MLCcre:Atg7F/F:GAA−/−, Quad",13.7 ± 10 μg glucose/hr/mg protein
same,Excess Glycogen,"[8]; MLCcre:Atg7F/F:GAA−/−, Quad",9.3 μg glucose/hr/mg protein
same,"Glycogen clearance, PAS-stained sections","[8]; MLCcre:Atg7F/F:GAA−/−, fast (gastrocnemius) muscle, 4 month-old",near complete glycogen clearance
same,Glycogen clearance after ERT (in words),"GAA−/− mice [9]; GAA−/− mice with genetically intact autophagy, skeletal muscle",cleared glycogen poorly
same,Treated vs. Untreated GAA−/− % Reduction,GAA−/− mice [9]; Gastroc,27%
same,"Glycogen level, Treated",GAA−/− mice [9]; Gastroc,52.5 ± 22.7 μg glucose/hr/mg protein
same,Excess Glycogen,GAA−/− mice [9]; Gastroc,48.1 μg glucose/hr/mg protein
same,Treated vs. Untreated GAA−/− % Reduction,GAA−/− mice [9]; Heart,100%
same,"Glycogen level, Treated",GAA−/− mice [9]; Heart,0.6 ± 1.2 μg glucose/hr/mg protein
same,Excess Glycogen,GAA−/− mice [9]; Heart,0 μg glucose/hr/mg protein
same,Treated vs. Untreated GAA−/− % Reduction,GAA−/− mice [9]; Quad,28%
same,"Glycogen level, Treated",GAA−/− mice [9]; Quad,54.5 ± 29.6 μg glucose/hr/mg protein
same,Excess Glycogen,GAA−/− mice [9]; Quad,50.1 μg glucose/hr/mg protein
